Laboratory results from US8735620B2, “Processes for preparing (E)-styrylbenzylsulfone compounds and uses thereof for treating proliferative disorders” (priority 2008, dated 2014).

Assays:
DU145 [1] = assay: PARP cleavage western blot, tumor cells; format: cell-based, human; conditions: tumor cells (DU145), 24, 48 and 72 h
Procedure: (§1) FIG. 2 Preferential tumor cell killing activity of 6aa. A. Cell Cycle analyses. Normal (HUVEC) and tumor cells (DU145) were treated with 20 nM concentration of 6aa and incubated in medium containing 10% fetal bovine serum. At 24 hr intervals, the cells were fixed, stained with propidium iodide and analyzed for their DNA content by flow Cytometry. B. Induction of apoptosis in normal (HUVEC) and tumor cells (DU145) was assessed by western blot analysis of cell lysates treated with 6aa for 24, 48 and 72 h. The Western blots were probed with anti-PARP antibodies to assess the cleavage of the protein.
[…] were plated at a density of 3.0×10^6 cells per 150 mm^2 plate and treated 24 h later with either DMSO or 6aa. The cells were collected at the indicated time points and cell pellets were frozen. The frozen cell pellets were lysed in 1% NP40/PBS lysis buffer containing protease inhibitors. Equal amounts of total cellular protein was then resolved on a 10%-SDS-polyacrylamide gel. The gels were transferred onto nitrocellulose paper (S/S), hybridized with anti-PARP antibodies (BD) and developed using ECL (Perkin-Elmer, MA) solution.

MIA-PaCa-2 cells = assay: Soft agar colony formation, MIA-PaCa-2; format: cell-based, human; conditions: MIA-PaCa-2, dose dependent, three weeks
Procedure: FIG. 1 Anti-tumor effects of (E)-2,4,6-Trimethoxystyryl-3-Hydroxy-4-Methoxybenzyl Sulfone (6aa). A. 6aa inhibits the growth of parental (MES-SA) and Paclitaxel resistant (MES-SA/DX5) cell lines with equal efficiency. The parental uterine sarcoma cells and the MDR positive (MES-SA/DX5) cells were plated into 6 well dishes and treated with various concentrations of 6aa and Paclitaxel for 96 h. The number of viable cells from duplicate plates was determined by trypan blue exclusion. B. Soft Agar Assays. MIA-PaCa-2 cells (1.0×10^5) were plated in soft agar containing various concentrations of each compound in triplicates. After three weeks of growth, the plates were stained for 48 h using 0.05% nitroblue tetrazolium solution. Representative plates were photographed using an Olympus stereoscope mounted with a Sony digital camera system (DKC5000, Sony Inc).
The soft agar plates were prepared as described by Cosenza, et al (Cosenza, S. C. et al. In Cell Growth, Differentiation and Senescence, Studzinski, G. P., Ed.; Oxford University Press: 1999, 161-176.). Briefly, Noble bottom agar (0.8%) was plated onto 60 mm tissue culture plates. Exponentially growing MIA-PaCa-2 cells (1.0×10^5) were mixed with growth medium with various concentrations of each compound and mixed with Noble agar to a final concentration of 0.4%. Each concentration was plated in triplicate. The top agar was allowed to solidify and the plates were then incubated at 5% CO2 at 37° C. for 3 weeks. The plates were then stained with 0.05% nitroblue tetrazolium (NBT) solution and representative plates were photographed using an Olympus stereoscope mounted with a Sony digital camera system (DKC5000, Sony Inc).

[2] = system: DU145 (prostate cancer) cells; assay: Cell cycle analysis by flow cytometry, tumor cells; format: cell-based, human; conditions: DU145, 20 nM, 24 hr intervals
Procedure: as §1
(§2) Human prostate tumor cells, DU145 cells, and normal diploid human lung fibroblasts, HFL-1 cells, were grown in DMEM (Cellgro) supplemented with 10% fetal bovine serum and 1 unit/mL penicillin-streptomycin. The cells were plated onto 100 mm^2 dishes at a cell density of 1.0×10^6 cells/dish, and 24 h later, they were treated with 2.5 μM of the compound. The cells were harvested 24, 48 and 72 h after treatment. The cells were removed from the plate by trypsin digestion and combined with the non-attached cells found in the medium. The cell pellets were washed in phosphate buffered saline (PBS), and fixed in ice cold 70% ethanol for at least 24 h. […] The stained cells were then analyzed on a Becton-Dickinson (BD) (FACScan) flow cytometer and the data analyzed by cell cycle analysis software (Modfit, BD).

[3] = system: human vascular endothelial cells (HUVEC); assay: Cell cycle analysis by flow cytometry, normal cells; format: cell-based; conditions: 20 nM, 24 hr intervals
Procedure: as §1, §2

DU145 [4] = assay: Soft agar colony formation, DU145; format: cell-based, human; conditions: DU145, dose dependent
[5] = system: BT20 human breast carcinoma xenograft; assay: Nude mouse xenograft assay
Procedure: Female athymic (NCr-nu/nu) mice were injected subcutaneously with 0.5-1×10^7 ER-negative human breast tumor cells (BT-20) in 0.2 mL of PBS and the tumors allowed to grow to a size of 100-150 mm^3 in size in about 14 days. The mice were then paired such that the pairs harbored equal sized tumors, which were then used to test the therapeutic effects of 6s and 6ab. A Of the pairs, the animals were treated with either 50 mg/kg 6s following a Q4D schedule or 25 mg/kg using a Q2D schedule or vehicle (DMSO) control. The tumor size was then measured on alternate days in two dimensions and the volume determined using either of the following equations: 1: V=(L×(S^2))π/6); where L is the longer and S is the shorter of the two measurements. B. 6ab was dissolved in PBS and was administered intravenously (50 mg/kg) through the tail vein on every alternate day. Tumor measurements were done as in materials and methods.
Female athymic (NCR-nu/nu, Taconic) nude mice were injected with 0.5-1.0×10^7 BT20 cells subcutaneously in the hind leg using a 1 mL tuberculin syringe equipped with a 271/2 gauge needle. Approximately 14 days later, mice were paired (N=8) and injected with 6ab or Phosphate buffered saline as the vehicle control. The intravenous injections were performed in the mouse tail vein using a 1 mL tuberculin syringe equipped with a 30 gauge needle. The animals were injected following a Q2D×3 schedule. Tumor measurements (two dimensions) were done three times per week using traceable digital vernier calipers (Fisher).

SMILES | apoptosis as judged by PARP cleavage (DU145 [1]) | growth of tumor cells in soft agar (MIA-PaCa-2 cells) | effect on cell cycle progression [2] | effect on cell cycle progression [3] | growth of tumor cells in soft agar (DU145 [4]) | fold increase in tumor volume ([5]; 25 mg/kg Q2D, IP, 22 day period, vehicle 5 fold) [fold] | final tumor volume ([5]; 25 mg/kg Q2D, IP, after 22 days, from 67.5 mm^3) [mm^3] | tolerability by body weights and physical observations ([5]; 50 mg/kg Q4D or 25 mg/kg Q2D, IP) | fold increase in average tumor volume ([5]; 50 mg/kg Q4D, IP, 22 day period, vehicle 5 fold) [fold] | final average tumor volume ([5]; 50 mg/kg Q4D, IP, after 22 days, from 74 mm^3) [mm^3] | tumor volume response of the majority of the mice ([5]; 8 mice per group)
COc1cc(OC)c(/C=C/S(=O)(=O)Cc2ccc(OC)c(O)c2)c(OC)c1 [6aa, (E)-2,4,6-Trimethoxystyryl-3-Hydroxy-4-Methoxybenzyl Sulfone] | activation of apoptotic pathways | complete inhibition of the growth of tumor cells | gradually accumulated in the G2/M phase | block of their cell cycle progression in the G1 phase | complete inhibition of the growth of tumor cells | – | – | – | – | – | –
COc1ccc(CS(=O)(=O)/C=C/c2c(OC)cc(OC)cc2OC)cc1 [6s, (E)-2,4,6-Trimethoxystyryl-4-Methoxybenzyl sulfone] | – | – | – | – | – | 2.5 | 165 | well tolerated | 2.9 | 217 | growth arrest or a gradual reduction in their tumor volume
